Laboratory results published in patent publication US20240002368A1 (QILU REGOR THERAPEUTICS INC., priority 2020, published 2024).
Read-outs that look alike come from different tables or passages of the source.

Tested on: STING pathway
Assay: IFN β reporter assay (HTRF, 2′3′-cGAMP-stimulated THP1 cells)
Type: cell-based, human
Conditions: Homo sapiens
Method: STING pathway deactivation by the compounds described herein was measured using THP1 cells. The THP1 Cells (obtained from ATCC, Cat #TIB-202) were maintained in RPMI-1640 (Gibco, Cat #22400105), 10% FBS, 1% Pen-Strep, 0.05 mM 2-mercaptoethanol. For STING activation, 2′3′-cGAMP (MW 718.38, obtained from Invivogen) was used and prepared in serum-free RPMI-1640 media. Growth media: RPMI-1640 (HEPES, glutamine), 10% FBS, 1% Pen-Strep, 0.05 mM 2-mercaptoethanol. Assay media: RPMI-1640 (HEPES, glutamine), 0.5% FBS. 2′3′-cGAMP: Dissolve 2′3′-cGAMP to 10 mM stock in H2O.
The cells were prepared and seeded at 100K, 90 μL/well with assay media in cell culture plate (Greiner 655180). The compounds were added in 96-well tissue culture plates by Tecan D300e for a final concentration of 0.00137-3 μM.
Lipo2000/3000 and 2′3′-cGAMP stock solutions were diluted respectively in serum-free RPMI-1640 media. The diluted 2′3′-cGAMP and Lipo (V/V=1:1) were mixed and stood for 15 min at room temperature. 10 μL 2,3-cGAMP/Lipofectamine (10×) was transferred to the 96-well assay plate with a final 2′3′-cGAMP concentration of 5 μM. The cell plates were centrifuged at 1000 rpm for 5 min after incubating at 37° C., 5% CO2 overnight.
All reagents (human IFN beta kit, Cisbio 62HIFNBPEG) were warmed to room temperature for at least 30 min before the assay. The instructions of the kit were followed to prepare the detection media. 14 μL of cell supernatants was transferred into their dedicated wells in 384-well plate. Then 2 μL of the activation reagent solution and 4 μL of the mixed antibody solution were added to all wells. The plate was sealed and incubated for 3 h at room temperature.
The HTRF signal was read in Envision (PerkinElmer). IFN β reporter activity was then measured. The calculated ratio is the signal at 665 nm/signal at 615 nm. IC50 values are calculated by using standard methods known in the art.

[1] = THP-1, THP1 cells, 5 μM 2′3′-cGAMP, IFN β secretion inhibition, class symbols, read-out: IFN β reporter activity IC50
[2] = THP-1, read-out: IFN β reporter activity IC50
[3] = THP-1, THP1 cells, 5 μM 2′3′-cGAMP, IFN β secretion inhibition, numeric values (comparators), read-out: IFN β reporter activity IC50

Row | SMILES | IC50 [1] [nM] | IC50 [2] [nM] | further results
1 | O=C(Nc1c[nH]c2ccc(F)cc12)c1n[nH]c2cc(CNCC(F)(F)F)ccc12 [Example 93] | 50 to 200 | – | –
2 | O=C(Nc1c[nH]c2ccccc12)c1nn(CC2CC2)c2cc(C(F)(F)F)ccc12 [Example 30] | – | 50 to 200 | –
3 | N#Cc1ccc2[nH]cc(NC(=O)c3cn(C4CC4)c4nc(OCC(F)(F)F)ccc34)c2c1 [Example 41] | – | 50 to 200 | –
4 | Cn1cc(C(=O)Nc2c[nH]c3ccc(F)cc23)c2ccc(C(F)(F)F)cc21 [Example 20] | – | < 50 | –
5 | CN(Cc1ccc2[nH]cc(NC(=O)c3cn(C)c4cc(C(F)(F)F)ccc34)c2c1)C(=O)OC(C)(C)C [Example 39] | 50 to 200 | – | –
6 | Cn1cc(C(=O)Nc2c[nH]c3ccc(F)cc23)c2ccc(Cl)cc21 [Example 32] | – | < 50 | –
7 | Cn1cc(C(=O)Nc2c[nH]c3ccc(C#N)cc23)c2ccc(C3=CCOCC3)cc21 [Example 54] | 200 to 1000 | – | –
8 | COCCOc1ccc2c(C(=O)Nc3c[nH]c4ccc(C#N)cc34)cn(C3CC3)c2n1 [Example 47] | – | 200 to 1000 | –
9 | Cn1nc(C(=O)Nc2c[nH]c3ccccc23)c2ccc(C(F)(F)F)cc21 [Example 1, N-(1H-indol-3-yl)-1-methyl-6-(trifluoromethyl)indazole-3-carboxamide] | – | 50 to 200 | –
10 | Cn1nc(C(=O)Nc2c[nH]c3ccccc23)c2cc(Br)ccc21 [Example 3] | – | 50 to 200 | –
11 | O=C(Nc1c[nH]c2ccc(F)cc12)c1n[nH]c2cc(Cl)c(Cl)cc12 [Example 12] | < 50 | – | –
12 | CNCc1ccc2[nH]cc(NC(=O)c3cn(C)c4cc(C(F)(F)F)ccc34)c2c1 [Example 110, 1-methyl-N-(5-((methylamino)methyl)-1H-indol-3-yl)-6-(trifluoromethyl)-1H-indole-3-carboxamide] | > 1000 | – | –
13 | O=C(Nc1c[nH]c2ccc(C(F)(F)F)cc12)c1n[nH]c2cc(C(F)(F)F)ccc12 [Example 10] | 50 to 200 | – | –
14 | O=C(Nc1c[nH]c2cc(F)c(F)cc12)c1c[nH]c2ccccc12 [Example 64] | 50 to 200 | – | –
15 | O=C(Nc1c[nH]c2cc(F)c(F)cc12)c1n[nH]c2cc(C(F)(F)F)ccc12 [Example 17] | < 50 | – | –
16 | Cn1cc(C(=O)Nc2c[nH]c3ccc(F)cc23)c2cc(F)c(CNC3CCC(F)(F)CC3)cc21 [Example 100] | 50 to 200 | – | –
17 | Cn1cc(C(=O)Nc2c[nH]c3ccc(F)cc23)c2cc(F)c(CNCC(F)F)cc21 [Example 103] | 50 to 200 | – | –
18 | COCCOc1ccc2c(C(=O)Nc3c[nH]c4ccc(F)cc34)cn(C3CC3)c2n1 [Example 46] | – | 50 to 200 | –
19 | Cn1cc(C(=O)Nc2c[nH]c3ccc(F)cc23)c2cc(F)c(CN3CCN(CC(F)(F)F)CC3)cc21 [Example 101] | 50 to 200 | – | –
20 | C#Cc1ccc2c(C(=O)Nc3c[nH]c4ccc(F)cc34)n[nH]c2c1 [Example 14] | 50 to 200 | – | –
21 | Cn1cc(C(=O)Nc2c[nH]c3ccc(N4CCNCC4=O)cc23)c2ccc(C(F)(F)F)cc21 [Example 108, 1-methyl-N-[5-(2-oxopiperazin-1-yl)-1H-indol-3-yl]-6-(trifluoromethyl)indole-3-carboxamide] | > 1000 | – | –
22 | Cn1cc(C(=O)Nc2c[nH]c3ccccc23)c2ccc(C(F)(F)F)cc21 [Example 18] | – | 50 to 200 | –
23 | O=C(Nc1c[nH]c2cc(F)c(F)cc12)c1nc2ccncc2s1 [Comparator B, reference compound] | – | – | IC50 [3]: > 3000 nM
24 | Cn1cc(C(=O)Nc2c[nH]c3ccc(F)cc23)c2ccc(C3CCOCC3)cc21 [Example 73] | 50 to 200 | – | –
25 | C[C@H](NCc1cc2c(cc1F)c(C(=O)Nc1c[nH]c3ccc(F)cc13)cn2C)C(F)(F)F [Example 104] | < 50 | – | –
26 | O=C(Nc1c[nH]c2ccccc12)c1n[nH]c2cc(C(F)(F)F)ccc12 [Example 31] | < 50 | – | –
27 | Cn1cc(C(=O)Nc2c[nH]c3ccc(F)cc23)c2cc(F)c(CN3CCCCC3)cc21 [Example 99] | > 1000 | – | –

Row | SMILES | IC50 [1] [nM] | IC50 [2] [nM] | further results
28 | Cn1cc(C(=O)Nc2c[nH]c3ccc(F)cc23)c2ccccc21 [Example 35] | – | 200 to 1000 | –
29 | O=C(Nc1c[nH]c2ccc(F)cc12)c1cn([C@H]2CCOC2)c2cc(C(F)(F)F)ccc12 [Example 77] | – | 50 to 200 | –
30 | Cn1cc(C(=O)Nc2c[nH]c3ccc(F)cc23)c2cc(F)c(CNC(C)(C)C)cc21 [Example 96] | > 1000 | – | –
31 | Cn1cc(C(=O)Nc2c[nH]c3cc(F)c(F)cc23)c2cc(F)c(CNCC(F)(F)F)cc21 [Example 106] | < 50 | – | –
32 | Cn1cc(C(=O)Nc2c[nH]c3ccc(F)cc23)c2cc(C(F)(F)F)cnc21 [Example 22] | – | 200 to 1000 | –
33 | Cn1cc(C(=O)Nc2c[nH]c3ccc(F)cc23)c2cc(F)c(CNCC(F)(F)F)cc21 [Example 91, 5-fluoro-N-(5-fluoro-1H-indol-3-yl)-1-methyl-6-[(2,2,2-trifluoroethylamino)methyl]indole-3-carboxamide] | 50 to 200 | – | –
34 | N#Cc1ccc2[nH]cc(NC(=O)c3cn(C4COC4)c4cc(C5=CCOCC5)c(F)cc34)c2c1 [Example 112, N-(5-cyano-1H-indol-3-yl)-6-(3,6-dihydro-2H-pyran-4-yl)-5-fluoro-1-(oxetan-3-yl)indole-3-carboxamide] | – | 50 to 200 | –
35 | CN(Cc1cc2c(cc1F)c(C(=O)Nc1c[nH]c3ccc(F)cc13)cn2C)CC(F)(F)F [Example 92, 5-fluoro-N-(5-fluoro-1H-indol-3-yl)-1-methyl-6-[[methyl(2,2,2-trifluoroethyl)amino]methyl]indole-3-carboxamide] | 50 to 200 | – | –
36 | O=C(Nc1c[nH]c2cc(F)c(F)cc12)c1cnn2cc(Br)ccc12 [Example 59] | 200 to 1000 | – | –
37 | N#Cc1ccc2[nH]cc(NC(=O)c3cn(C4CC4)c4nc(O[C@@H]5CCOC5)ccc34)c2c1 [Example 43] | – | 200 to 1000 | –
38 | O=C(Nc1c[nH]c2ccc(F)cc12)c1cnn2cc(Cl)ccc12 [Example 23] | 200 to 1000 | – | –
39 | Cn1nc(C(=O)Nc2c[nH]c3ccccc23)c2ccc(C#N)cc21 [Example 86, 6-cyano-N-(1H-indol-3-yl)-1-methyl-indazole-3-carboxamide] | > 1000 | – | –
40 | CN1CC=C(c2cc3c(cc2Cl)c(C(=O)Nc2c[nH]c4ccc(C#N)cc24)cn3C)CC1 [Example 119, 5-chloro-N-(5-cyano-1H-indol-3-yl)-1-methyl-6-(1-methyl-3,6-dihydro-2H-pyridin-4-yl)indole-3-carboxamide] | – | > 1000 | –
41 | O=C(Nc1c[nH]c2ccc(F)cc12)c1cn(C2CC2)c2cc(C(F)(F)F)ccc12 [Example 67, 1-cyclopropyl-N-(5-fluoro-1H-indol-3-yl)-6-(trifluoromethyl)indole-3-carboxamide] | – | < 50 | –
42 | CC(NCC(F)(F)F)c1cc2c(cc1F)c(C(=O)Nc1c[nH]c3ccc(F)cc13)cn2C (racemic) [Example 107, rac-5-fluoro-N-(5-fluoro-1H-indol-3-yl)-1-methyl-6-[1-(2,2,2-trifluoroethylamino)ethyl]indole-3-carboxamide] | 50 to 200 | – | –
43 | O=C(Nc1c[nH]c2cc(F)c(F)cc12)c1n[nH]c2nc(OCC(F)(F)F)ccc12 [Example 70] | 50 to 200 | – | –
44 | O=C(Nc1c[nH]c2ccccc12)c1n[nH]c2cc(Br)ccc12 [Example 9] | < 50 | – | –
45 | O=C(Nc1c[nH]c2ccc(F)cc12)c1n[nH]c2cc(OC(F)(F)F)ccc12 [Example 11] | 200 to 1000 | – | –
46 | Cn1cc(C(=O)Nc2c[nH]c3ccc(C(N)=O)cc23)c2ccc(C(F)(F)F)cc21 [Example 34] | > 1000 | – | –
47 | O=C(Nc1c[nH]c2cc(F)c(F)cc12)c1cnc2[nH]ncc2c1 [Comparator A, reference compound] | – | – | IC50 [3]: > 30000 nM
48 | Cn1cc(C(=O)Nc2c[nH]c3ccc(F)cc23)c2cc(F)c(C3CCOCC3)cc21 [Example 81] | < 50 | – | –
49 | CN1CCC(c2cc3c(cc2F)c(C(=O)Nc2c[nH]c4ccc(F)cc24)cn3C)CC1 [Example 116, 5-fluoro-N-(5-fluoro-1H-indol-3-yl)-1-methyl-6-(1-methyl-4-piperidyl)indole-3-carboxamide] | > 1000 | – | –
50 | C[C@@H](NCc1cc2c(cc1F)c(C(=O)Nc1c[nH]c3ccc(F)cc13)cn2C)C(F)(F)F [Example 105] | < 50 | – | –
51 | N#Cc1ccc2[nH]cc(NC(=O)c3cn(C4CC4)c4nc(O[C@H]5CCOC5)ccc34)c2c1 [Example 42] | – | 200 to 1000 | –
52 | NC(=O)c1ccc2c(C(=O)N(CC(F)(F)F)c3c[nH]c4cc(F)ccc34)n[nH]c2c1 [Example 89, N-(6-fluoro-1H-indol-3-yl)-N-(2,2,2-trifluoroethyl)-1H-indazole-3,6-dicarboxamide] | 200 to 1000 | – | –
53 | CN1CC(n2cc(C(=O)Nc3c[nH]c4ccc(F)cc34)c3ccc(C(F)(F)F)cc32)C1 [Example 114, N-(5-fluoro-1H-indol-3-yl)-1-(1-methylazetidin-3-yl)-6-(trifluoromethyl)indole-3-carboxamide] | – | > 1000 | –
